According to paper PMC11928319 (Nature Plants, 2025):
Where a SMILES comes first, the peptide text is derived from it. [ ]: non-standard residue; d: D form. Hyp = O=C(O)[C@@H]1C[C@@H](O)CN1

Columns and labels:
[1] = tested on: filter-sterile supernatant of Rhodanobacter R179 (secreted peptidase(s)); assay: Peptide quantification by mass spectrometry after incubation in cell-free supernatant of Rhodanobacter R179; format: in vitro ADME; settings: for peptide detected by mass spectrometry after incubation in supernatant of the R179 dssAB mutant / peptide detected by mass spectrometry after incubation in supernatant of wild-type R179: 1 µM peptide, 1 h, LC-MS MS1 peak area; for peptide detected by mass spectrometry after incubation in supernatant of the R179 dssAB mutant: filter-sterile supernatant of dssAB mutant cultivated in XVM2 (OD600 = 0.4), n = 3; for peptide detected by mass spectrometry after incubation in supernatant of wild-type R179: filter-sterile supernatant of wild-type R179 cultivated in XVM2 minimal medium (OD600 = 0.4), light chamber, n = 3 culture supernatants
Protocol: Elicitors were also supplemented into the medium prior to solidification at a final concentration of 1 µM. The flg22 ([…]) and AtPep1 ([…]) peptides were synthesized by EZbiolab. elf18^R179 (Ac-[…]) and elf18 (Ac-[…]) were synthesized by GenScript and EZbiolab, respectively. For inoculation with the bacterial supernatant, bacteria were cultivated overnight in XVM2 minimal medium (20 mM NaCl, 10 mM (NH4)2SO4, 5 mM MgSO4, 1 mM CaCl2, 0.16 mM KH2PO4, 0.32 mM K2HPO4, 0.01 mM FeSO4, 10 mM fructose, 10 mM sucrose, 0.03% Casamino acids, pH 6.7)[76] to a final concentration of OD600 = 0.4. Bacteria were pelleted by centrifugation (11,600 g, 2 min), and the supernatant was sterile-filtered using filter units with MF-Millipore membrane (0.22 µm; Millex). The supernatant was incubated in boiling water for 30 min for heat treatment. Then, 25 ml of 1× MS with 20 g l^−1 Bacto Agar was mixed with 25 ml of supernatant prior to medium solidification and poured into square petri dishes. Sterilized seeds were placed on solidified agar in square petri dishes and vertically incubated for 14 days.
Bacterial supernatants were prepared as described in ‘Agar-based cultivation of axenic plants and co-cultivation with bacteria, bacterial supernatants and elicitors’. Here, additionally, the peptides dRGF1 (DYSNPGHHP-Hyp-RHN) and PSY1 (D-Y(SO3H)-[…]-Hyp-Hyp-S) synthesized by Scilight Peptide were incubated for 1 h with 1 µM of peptides in a plant cultivation light chamber (day-light condition; see ‘Plant cultivation conditions’), and the samples were frozen at −20 °C until further processing. For the investigation of AtPep1 degradation, the AtPep1 peptide was first modified by acetylation (six to seven times). To this end, 100-µl aliquots of peptides were treated with 10 µl of NHS acetate solution (1 M NHS acetate in 50% ACN/PBS) and incubated for 30 min with shaking. The reaction was quenched by the addition of 100 µl of 100 mM Tris-HCl (pH 8.5) and incubated for 10 min. For comparison of the non-acetylated peptides with the above-described modified AtPep1 peptides, aliquots of the non-acetylated peptides were processed as described above, but without the modifying NHS reaction. To this end, 100-µl aliquots of the sample were mixed with 100 µl of PBS buffer (137 mM NaCl, 2.7 mM KCl, 10 mM Na2HPO4, 1.8 mM KH2PO4; pH 7.4). The samples were then further diluted with 100 µl of 100 mM Tris-HCl (pH 8.5) and incubated for 10 min. All samples were acidified with 5 µl of TFA and desalted using StageTips with C18 Empore disk membranes (3M)[109]. The samples were dried in a vacuum evaporator and dissolved in 10 µl of 2% ACN (0.1% TFA for analysis).
The samples were analysed using an EASY-nLC 1200 (Thermo Fisher) coupled to a QExactive Plus mass spectrometer (Thermo Fisher). Peptides were separated on 16-cm frit-less silica emitters (New Objective, 75 µm inner diameter), packed in-house with reversed-phase ReproSil-Pur C18 AQ 1.9 µm resin (Dr. Maisch). Peptides were loaded on the column and eluted for 50 min using a segmented linear gradient of 5% to 95% solvent B (0 min, 5% B; 0–5 min, 15% B; 5–35 min, 50% B; 35–45 min, 95% B; 45–50 min, 95% B) (solvent A: 0% ACN, 0.1% FA; solvent B: 80% ACN, 0.1% FA) at a flow rate of 300 nl min^−1. Mass spectra were acquired in data-dependent acquisition mode with a TOP10 method. Mass spectrometry spectra were acquired in the Orbitrap analyser with a mass range of 300–1,500 m/z at a resolution of 70,000 full width at half maximum (FWHM) and a target value of 3 × 10^6 ions. Precursors were selected with an isolation window of 1.3 m/z. Higher-energy collision dissociation (HCD) fragmentation was performed at a normalized collision energy of 25. Tandem mass spectrometry (MS/MS) spectra were acquired with a target value of 5 × 10^5 ions at a resolution of 17,500 FWHM, a maximum injection time of 85 ms and a fixed first mass of 100 m/z. […]

[2] = filter-sterile supernatant of the Rhodanobacter R179 dssAB mutant cultivated in XVM2 medium (bacterial culture: OD600 = 0.4); settings: plant cultivation light chamber (day-light condition; 21 °C), up to 1 h
[3] = filter-sterile supernatant of wild-type Rhodanobacter R179 cultivated in XVM2 medium (bacterial culture: OD600 = 0.4); settings: Rhodanobacter R179, plant cultivation light chamber (day-light condition; 21 °C), up to 1 h
[4] = supernatant of the R179 dssAB mutant grown in XVM2 minimal medium supplemented with 10% TSB; settings: Rhodanobacter R179 dssAB mutant, plant cultivation light chamber (day-light condition; 21 °C), up to 1 h
[5] = supernatant of wild-type R179 grown in XVM2 medium supplemented with 10% carbon-rich medium (tryptic soy broth); settings: Rhodanobacter R179, plant cultivation light chamber (day-light condition; 21 °C), up to 1 h
[6] = R179 dssAB mutant supernatant, XVM2 medium, incubation 1h, MS1 precursor area, replicate 1
[7] = R179 dssAB mutant supernatant, XVM2 medium, incubation 1h, MS1 precursor area, replicate 2
[8] = R179 dssAB mutant supernatant, XVM2 medium, incubation 1h, MS1 precursor area, replicate 3
[9] = R179 dssAB mutant supernatant, XVM2 medium, incubation 1h, peptide relative to axenic, replicate 1
[10] = R179 dssAB mutant supernatant, XVM2 medium, incubation 1h, peptide relative to axenic, replicate 2
[11] = R179 dssAB mutant supernatant, XVM2 medium, incubation 1h, peptide relative to axenic, replicate 3
[12] = R179 wt supernatant, XVM2 medium, incubation 1h, MS1 precursor area, replicate 1
[13] = R179 wt supernatant, XVM2 medium, incubation 1h, MS1 precursor area, replicate 2
[14] = R179 wt supernatant, XVM2 medium, incubation 1h, MS1 precursor area, replicate 3
[15] = R179 wt supernatant, XVM2 medium, incubation 1h, peptide relative to axenic, replicate 1
[16] = R179 wt supernatant, XVM2 medium, incubation 1h, peptide relative to axenic, replicate 2
[17] = R179 wt supernatant, XVM2 medium, incubation 1h, peptide relative to axenic, replicate 3
[18] = axenic XVM2 medium control, incubation 1h, MS1 precursor area, replicate 1
[19] = axenic XVM2 medium control, incubation 1h, MS1 precursor area, replicate 2
[20] = axenic XVM2 medium control, incubation 1h, MS1 precursor area, replicate 3
[21] = axenic XVM2 medium control, incubation 1h, peptide relative to axenic, replicate 1
[22] = axenic XVM2 medium control, incubation 1h, peptide relative to axenic, replicate 2
[23] = axenic XVM2 medium control, incubation 1h, peptide relative to axenic, replicate 3

With N=C(N)NCCC[C@H](NC(=O)[C@@H]1C[C@@H](O)CN1C(=O)[C@@H]1CCCN1C(=O)[C@H](Cc1c[nH]cn1)NC(=O)[C@H](Cc1c[nH]cn1)NC(=O)CNC(=O)[C@@H]1CCCN1C(=O)[C@H](CC(N)=O)NC(=O)[C@H](CO)NC(=O)[C@H](Cc1ccc(O)cc1)NC(=O)[C@@H](N)CC(=O)O)C(=O)N[C@@H](Cc1c[nH]cn1)C(=O)N[C@@H](CC(N)=O)C(=O)O [dRGF1] (H-DYSNPGHHP[Hyp]RHN-OH) the “peptide detected by mass spectrometry after incubation in supernatant of the R179 dssAB mutant” value [1] was “still detected”, the “peptide detected by mass spectrometry after incubation in supernatant of wild-type R179” value [1] was “still detected” and the “Log10(total_area_MS1)” value [1, 6] was 8.738. The “Log10(total_area_MS1)” value [1, 7] was 8.7982, the “Log10(total_area_MS1)” value [1, 8] was 8.898 and the percent_rel_axenic [1, 9] was 299.876%. For the same molecule, the percent_rel_axenic [1, 10] was 344.476%, the percent_rel_axenic [1, 11] was 433.442% and the “Log10(total_area_MS1)” value [1, 12] was 8.685. For the same molecule, the “Log10(total_area_MS1)” value [1, 13] was 8.632, the “Log10(total_area_MS1)” value [1, 14] was 8.682 and the percent_rel_axenic [1, 15] was 265.464%. For the same molecule, the percent_rel_axenic [1, 16] was 235.074%, the percent_rel_axenic [1, 17] was 263.706% and the “Log10(total_area_MS1)” value ([1]; axenic XVM2_TSB, 1h, 1 µM, LC-MS [M+2H], replicate 2) was 8.595. For the same molecule, the “Log10(total_area_MS1)” value ([1]; axenic XVM2_TSB, 1h, 1 µM, LC-MS [M+2H], replicate 3) was 8.5, the percent_rel_axenic ([1]; axenic XVM2_TSB, 1h, 1 µM, LC-MS, relative to axenic, replicate 2) was 103.573% and the percent_rel_axenic ([1]; axenic XVM2_TSB, 1h, 1 µM, LC-MS, relative to axenic, replicate 3) was 83.3448%. The “Log10(total_area_MS1)” value [1, 18] was 8.337, the “Log10(total_area_MS1)” value [1, 19] was 8.259 and the “Log10(total_area_MS1)” value [1, 20] was 8.171. It also gave a percent_rel_axenic [1, 21] of 119.158%, a percent_rel_axenic [1, 22] of 99.6152% and a percent_rel_axenic [1, 23] of 81.2268%. For the same molecule, the “Log10(total_area_MS1)” value ([1]; supernatant of wt R179 grown in XVM2_TSB, 1h, 1 µM, LC-MS [M+2H], replicate 1) was 8.931, the “Log10(total_area_MS1)” value ([1]; supernatant of wt R179 grown in XVM2_TSB, 1h, 1 µM, LC-MS [M+2H], replicate 2) was 9.001 and the percent_rel_axenic ([1]; supernatant of wt R179 grown in XVM2_TSB, 1h, 1 µM, LC-MS, relative to axenic, replicate 1) was 225.002%. It also gave a percent_rel_axenic ([1]; supernatant of wt R179 grown in XVM2_TSB, 1h, 1 µM, LC-MS, relative to axenic, replicate 2) of 263.948%.

For “D-Y(SO3H)-GDPSANPKHDPGV-Hyp-Hyp-S [PSY1, root-growth-promoting sulfated PSY1 peptide]”, the “peptide detected by mass spectrometry after incubation in supernatant of the R179 dssAB mutant” value [1] was “still detected”, the “peptide detected by mass spectrometry after incubation in supernatant of wild-type R179” value [1] was “still detected” and the “Log10(total_area_MS1)” value [1, 6] was 9.656. The “Log10(total_area_MS1)” value [1, 7] was 9.68, the “Log10(total_area_MS1)” value [1, 8] was 9.49 and the percent_rel_axenic [1, 9] was 16.8242%. For the same molecule, the percent_rel_axenic [1, 10] was 17.7896%, the percent_rel_axenic [1, 11] was 11.4643% and the “Log10(total_area_MS1)” value [1, 12] was 9.465. The “Log10(total_area_MS1)” value [1, 13] was 9.6971, the “Log10(total_area_MS1)” value [1, 14] was 9.627 and the percent_rel_axenic [1, 15] was 10.8248%. For the same molecule, the percent_rel_axenic [1, 16] was 18.4872%, the percent_rel_axenic [1, 17] was 15.7291% and the “Log10(total_area_MS1)” value [1, 18] was 10.5778. The “Log10(total_area_MS1)” value [1, 19] was 10.3906, the “Log10(total_area_MS1)” value [1, 20] was 10.2645 and the percent_rel_axenic [1, 21] was 140.453%. The percent_rel_axenic [1, 22] was 91.2772% and the percent_rel_axenic [1, 23] was 68.27%.

For DYSNPGHHP-Hyp-RHN, the not cleaved [2] was “still detected after 1 h; peak area above 100% relative to mock (Fig. 4a)”, the not cleaved [3] was “still detected after 1 h; peak area above 100% relative to mock (Fig. 4a)” and the not cleaved [4] was “peak area above 100% relative to mock (Extended Data Fig. 7d)”. For the same molecule, the not cleaved [5] was “peak area above 100% relative to mock (Extended Data Fig. 7d)”.
